According to patent publication US20260355196A1, “INHIBITORS AND DEGRADERS OF PIP4K PROTEIN” (Larkspur Biosciences, Inc., priority 2023, published 2026):
pIC50: −log10 of the molar value.

What follows are compounds tested against T1, PIP4K2C (Homo sapiens, UniProt Q8TBX8) (assay: Enzyme Binding Assay (KINOMEscan): active site-directed competition binding to an immobilized ligand). Conditions: 11-point dose response, duplicate, top concentration 5 micromolar; read-out: Pip4k2c Kd: IC50.
T1 sequence (Q8TBX8 1-421): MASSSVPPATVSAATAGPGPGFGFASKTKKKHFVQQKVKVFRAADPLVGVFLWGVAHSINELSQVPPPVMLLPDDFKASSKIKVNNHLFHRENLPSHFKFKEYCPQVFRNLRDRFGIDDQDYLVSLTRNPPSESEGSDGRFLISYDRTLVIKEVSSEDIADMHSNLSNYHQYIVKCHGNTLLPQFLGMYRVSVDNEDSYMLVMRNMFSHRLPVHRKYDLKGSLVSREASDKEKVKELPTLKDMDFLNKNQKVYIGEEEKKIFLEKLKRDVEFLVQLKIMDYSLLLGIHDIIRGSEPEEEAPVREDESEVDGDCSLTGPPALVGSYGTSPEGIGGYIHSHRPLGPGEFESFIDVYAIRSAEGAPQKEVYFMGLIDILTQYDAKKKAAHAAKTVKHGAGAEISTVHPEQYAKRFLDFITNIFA
Set-up: purchased Eurofins DiscoverX, San Diego, CA 87-0007-1094
Method in brief: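 Active site-directed competition binding against an immobilized ligand. 11-point dose-response in duplicate, top concentration 5 micromolar; IC50 from a Hill equation fitted by the Levenberg-Marquardt algorithm.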

| pIC50 | Structure (SMILES) |
| --- | --- |
| > 6.30 | CC(=O)N[C@H]1CC[C@H](Nc2ncc(F)c(-c3cccc(N4CCOCC4=O)c3)n2)CC1 [Compound 267, trans-N-(4-((5-fluoro-4-(3-(3-oxomorpholino)phenyl)pyrimidin-2-yl)amino)cyclohexyl)acetamide] |
| > 6.30 | CC(=O)N[C@H]1CC[C@H](Nc2ncc(F)c(-c3ccnc(N4CCCC4=O)c3)n2)CC1 [Compound 261, trans-N-(4-((5-fluoro-4-(2-(2-oxopyrrolidin-1-yl)pyridin-4-yl)pyrimidin-2-yl)amino)cyclohexyl)acetamide] |
| > 6.30 | CC(=O)N1CCC(Nc2ncc(Cl)c(C3CCN(c4ccccc4)C3)n2)CC1 (stereo not drawn) [Compound 30, 1-(4-((5-chloro-4-(1-phenylpyrrolidin-3-yl)pyrimidin-2-yl)amino)piperidin-1-yl)ethan-1-one] |
| > 6.30 | NC(=O)[C@H]1CCC[C@@H](Nc2ncc(F)c(-c3cccc(-c4cc[nH]c(=O)c4)c3)n2)C1 (relative stereo) [Compound 200, cis-3-((5-fluoro-4-(3-(2-oxo-1,2-dihydropyridin-4-yl)phenyl)pyrimidin-2-yl)amino)cyclohexane-1-carboxamide] |
| > 6.30 | CNC(=O)[C@H]1CC[C@H](Nc2ncc(Cl)c(-c3cnn(C4CC4)c3)n2)CC1 [Compound 117, trans-(1r,4r)-4-((5-chloro-4-(1-cyclopropyl-1H-pyrazol-4-yl)pyrimidin-2-yl)amino)-N-methylcyclohexane-1-carboxamide] |
| > 6.30 | CC(=O)N[C@H]1CC[C@H](Nc2ncc(F)c(-c3cccc(-c4ccc[nH]c4=O)c3)n2)CC1 [Compound 255, N-(trans-4-((5-fluoro-4-(3-(2-oxo-1,2-dihydropyridin-3-yl)phenyl)pyrimidin-2-yl)amino)cyclohexyl)acetamide] |
| > 6.30 | CC(=O)N1CCC(Nc2ncc(F)c(-c3cccc(-n4ccccc4=O)c3)n2)CC1 [Compound 614, 1-(3-(2-((1-acetylpiperidin-4-yl)amino)-5-fluoropyrimidin-4-yl)phenyl)pyridin-2(1H)-one] |
| > 6.30 | CNC(=O)[C@H]1CC[C@H](Nc2ncc(Cl)c(-c3cccc(-c4ccc(F)cc4)n3)n2)CC1 [Compound 159, trans-(1r,4r)-4-((5-chloro-4-(6-(4-fluorophenyl)pyridin-2-yl)pyrimidin-2-yl)amino)-N-methylcyclohexane-1-carboxamide] |
| 6.00 to 6.30 | CNC(=O)[C@H]1CC[C@@H](Nc2ncc(Cl)c(-c3cnn(C4CC4)c3)n2)CC1 [Compound 107, cis-(1s,4s)-4-((5-chloro-4-(1-cyclopropyl-1H-pyrazol-4-yl)pyrimidin-2-yl)amino)-N-methylcyclohexane-1-carboxamide] |
| > 6.30 | CNC(=O)[C@H]1CC[C@H](Nc2ncc(Cl)c(-c3cnn(C4CCCCC4)c3)n2)CC1 [Compound 118, trans-(1r,4r)-4-((5-chloro-4-(1-cyclohexyl-1H-pyrazol-4-yl)pyrimidin-2-yl)amino)-N-methylcyclohexane-1-carboxamide] |
| 6.00 to 6.30 | NC(=O)[C@H]1CC[C@@H](Nc2ncc(Cl)c(-c3ccc(F)cc3)n2)CC1 [Compound 25, cis-4-((5-chloro-4-(4-fluorophenyl)pyrimidin-2-yl)amino)cyclohexane-1-carboxamide] |
| > 6.30 | NC(=O)[C@@H]1CCC[C@H](Nc2ncc(F)c(-c3cccc(-c4ccc[nH]c4=O)c3)n2)C1 [Compound 204, (1R,3S)-3-((5-fluoro-4-(3-(2-oxo-1,2-dihydropyridin-3-yl)phenyl)pyrimidin-2-yl)amino)cyclohexane-1-carboxamide] |
| 6.00 to 6.30 | CNC(=O)[C@H]1CC[C@H](Nc2ncc(Cl)c(-c3ccc(=O)n(C4CC4)c3)n2)CC1 [Compound 106, trans-(1r,4r)-4-((5-chloro-4-(1-cyclopropyl-6-oxo-1,6-dihydropyridin-3-yl)pyrimidin-2-yl)amino)-N-methylcyclohexane-1-carboxamide] |
| 6.00 to 6.30 | CC(=O)N1CCC(Nc2ncc(F)c(N3CCCC(c4cc[nH]c(=O)c4)C3)n2)CC1 (stereo not drawn) [Compound 224, 4-(1-(2-((1-acetylpiperidin-4-yl)amino)-5-fluoropyrimidin-4-yl)piperidin-3-yl)pyridin-2(1H)-one] |
| > 6.30 | CC(=O)N[C@H]1CC[C@H](Nc2ncc(Cl)c(-c3cccc(-c4ccc(F)cc4)n3)n2)CC1 [Compound 158, trans-N-((1r,4r)-4-((5-chloro-4-(6-(4-fluorophenyl)pyridin-2-yl)pyrimidin-2-yl)amino)cyclohexyl)acetamide] |
| > 6.30 | CC(=O)N[C@H]1CC[C@H](Nc2ncc(F)c(-c3ccnc(C(C)(C)O)c3)n2)CC1 [Compound 241, trans-N-(4-((5-fluoro-4-(2-(2-hydroxypropan-2-yl)pyridin-4-yl)pyrimidin-2-yl)amino)cyclohexyl)acetamide] |
| > 6.30 | CNC(=O)[C@H]1CC[C@H](Nc2ncc(Cl)c(-c3cccc(-n4ccccc4=O)c3)n2)CC1 [Compound 103, trans-(1r,4r)-4-((5-chloro-4-(3-(2-oxopyridin-1 (2H)-yl)phenyl)pyrimidin-2-yl)amino)-N-methylcyclohexane-1-carboxamide] |
| > 6.30 | CC(=O)N1CCC(Nc2ncc(F)c(-c3cccc(C(=O)N4CCC(O)(CN)CC4)c3)n2)CC1 [Compound 218, 1-(4-((4-(3-(4-(aminomethyl)-4-hydroxypiperidine-1-carbonyl)phenyl)-5-fluoropyrimidin-2-yl)amino)piperidin-1-yl)ethan-1-one] |
| > 6.30 | NC(=O)[C@H]1CC[C@H](Nc2ncc(F)c(-c3cccc(-c4cc[nH]c(=O)c4)c3)n2)CC1 [Compound 195, trans-4-((5-fluoro-4-(3-(2-oxo-1,2-dihydropyridin-4-yl)phenyl)pyrimidin-2-yl)amino)cyclohexane-1-carboxamide] |
| > 6.30 | CC(=O)N[C@H]1CC[C@H](Nc2ncc(F)c(-c3cccc(N4CCOC4=O)c3)n2)CC1 [Compound 233, trans-N-(4-((5-fluoro-4-(3-(2-oxooxazolidin-3-yl)phenyl)pyrimidin-2-yl)amino)cyclohexyl)acetamide] |
| > 6.30 | NC(=O)C1CCCC(Nc2ncc(Cl)c(-c3cccc(-c4ccccc4)c3)n2)C1 (stereo not drawn) [Compound 22, 3-((4-([1,1′-biphenyl]-3-yl)-5-chloropyrimidin-2-yl)amino)cyclohexane-1-carboxamide] |
| > 6.30 | CC(=O)N1CCC[C@H](Nc2ncc(Cl)c(-c3cccc(-c4ccc(F)cc4)c3)n2)C1 [Compound 128, (S)-1-(3-((5-chloro-4-(4′-fluoro-[1,1′-biphenyl]-3-yl)pyrimidin-2-yl)amino)piperidin-1-yl)ethan-1-one] |
| > 6.30 | CNC(=O)[C@H]1CC[C@H](Nc2ncc(Cl)c(-c3cnn(-c4ccc(=O)[nH]c4)c3)n2)CC1 [Compound 146, trans-(1r,4r)-4-((5-chloro-4-(1-(6-oxo-1,6-dihydropyridin-3-yl)-1H-pyrazol-4-yl)pyrimidin-2-yl)amino)-N-methylcyclohexane-1-carboxamide] |
| > 6.30 | CC(=O)N1CCC(Nc2ncc(F)c(-c3cccc(C4CCCN(C(C)=O)C4)c3)n2)CC1 (stereo not drawn) [Compound 179, 1-(4-((4-(3-(1-acetylpiperidin-3-yl)phenyl)-5-fluoropyrimidin-2-yl)amino)piperidin-1-yl)ethan-1-one] |
| > 6.30 | CC(=O)N[C@H]1CC[C@H](Nc2ncc(F)c(-c3ccnc(N4CCOC4=O)c3)n2)CC1 [Compound 253, trans-N-((1r,4r)-4-((5-fluoro-4-(2-(2-oxooxazolidin-3-yl)pyridin-4-yl)pyrimidin-2-yl)amino)cyclohexyl)acetamide] |
| > 6.30 | CC(=O)N1CCC(Nc2ncc(Cl)c(-c3cnn(-c4ccc[nH]c4=O)c3)n2)CC1 [Compound 111, 3-(4-(2-((1-acetylpiperidin-4-yl)amino)-5-chloropyrimidin-4-yl)-1H-pyrazol-1-yl)pyridin-2(1H)-one] |
| > 6.30 | CNC(=O)[C@H]1C[C@@H](Nc2ncc(Cl)c(-c3cnn(C4CC4)c3)n2)C1 [Compound 97, cis-3-((5-chloro-4-(1-cyclopropyl-1H-pyrazol-4-yl)pyrimidin-2-yl)amino)-N-methylcyclobutane-1-carboxamide] |
